# Experimental data reported in patent US5972894A, “Peptides having potassium channel opener activity” (Cytran, Inc., priority 1997, dated 1999).
# Residues, ends and D or L forms follow the SMILES beside them.
# Test system: ischemic myocardium
# Assay: Inotropic function and arrhythmias of ischemic isolated rat heart during reperfusion
# Conditions: for -dp/dtmax, % of preischemic value: by the 30th minute of reperfusion
# From the text: Rat hearts were surgically isolated from white random-bred rats weighing approximately 250 g. The isolated hearts were perfused with a standard oxygenated (95% O2 and 5% CO2) Krebs-Henseleit solution in a retrograde manner (i.e., according to Langendorff and using a constant perfusate pressure of 80 cm of water). The hearts maintained a steady spontaneous contraction rate. A latex balloon catheter connected to a pressure transducer (EMT-746, Siemens-Elema, Sweden) was inserted into the left ventricle of each heart to measure the inotropic function of the heart (as described in Example 3, above). The left ventricle pressure variation curve was recorded using a polygraph.
# Stage I ("adaptation regimen") consisted of a 30-minute adaptation of the respective rat hearts to the perfusion regimen. The baseline parameters for the inotropic function of each heart were recorded to establish the preischemic values for the following measured parameters: (i) the systolic pressure in the left ventricle (Psyst. mm Hg); (ii) the diastolic pressure in the left ventricle (Pdiast. mm Hg); (iii) the evolving pressure (Pev. =Psyst. -Pdist. mm Hg); (iv) the maximal rate of increase of left ventricle pressure (+dp/dtmax mm Hg/sec); and (v) the maximal rate of decrease of left ventricle pressure (-dp/dtmax mm Hg/sec). In addition, the heart rate (HR) of each heart was determined from the recordings made of the variations in the left ventricle pressure over time. In Stage II ("ischemic simulation"), ischemia was induced in each heart by shutting off the supply of the perfusion solution to the heart. Approximately 30 minutes later, Stage III ("reperfusion regimen") was initiated by restarting the reperfusion and including in the perfusate solution a test or control substance at one of the following respective concentrations: a perfusate solution of a test substance comprised 0.06, 0.6, or 6.0 mg/l GE, or 0.06, 0.6, or 6.0 mg/l VT, respectively; a perfusate solution of the positive control substance comprised 14 mg/l inosine. Inosine is a nucleoside preparation that produces a favorable inotropic effect on both normal and ischemic myocardium while inducing no rhythm disturbances or acceleration of ischemic contracture development. Woollard et al., Cardiovasc. Res. 15: 659-67 (1981). Inosine was obtained from Sigma Chemical Company, USA (Cat. Code I-4125; lot number 81H0227). The negative control substance comprised reperfusion using a standard oxygenated Krebs-Henseleit solution.
# For each heart, the inotropic function of the myocardium was evaluated by measuring the parameters (i) through (v), discussed above, and the heart rate. These six parameters were recorded continuously throughout the study (i.e., beginning with Stage I and continuing through Stage III). The recordings were analyzed at the following times: (a) immediately before beginning Stage II (that is, after the 30-minute Stage I adaptation period, but before stopping perfusion); and (b) at 1, 5, 10, 20, and 30 minutes into the Stage III reperfusion.
# The frequency and duration of rhythm disturbances in the 30-minute Stage III reperfusion period were determined by measuring the following parameters: (i) the number of ventricular extrasystoles; (ii) the overall duration of ventricular tachycardias (in seconds); and (iii) the overall duration of ventricular fibrillation (in seconds). Each dose of the test substance was tested on nine isolated hearts.
# [1] = 6.0 mg/l, 30-minute reperfusion
smiles,measurement,setting,value
"NCC(=O)N[C@@H](CCC(=O)O)C(=O)O [GE, L-Glycyl-L-Glutamic acid] (H-Gly-Glu-OH)",Systolic Pressure in Ischemic Left Ventricle (% of Preischemic Values),"0.6 mg/l, 10 min reperfusion",88.40%
same,Diastolic Pressure in Ischemic Left Ventricle (% of Preischemic Mean Value),"0.6 mg/l, 20 min reperfusion",99.28%
same,Evolving Pressure in Ischemic Left Ventricle (% of Preischemic Mean Value),"0.6 mg/l, 20 min reperfusion",78.42%
same,Heart Rate during Reperfusion (% of Preischemic Mean Value),"0.6 mg/l, 20 min reperfusion",91.53%
same,Maximal Rate of Increase of Left Ventricle Pressure (% of Preischemic Mean Value),"0.6 mg/l, 20 min reperfusion",81.12%
same,Maximal Rate of Left Ventricle Pressure Decrease (% of Preischemic Mean Value),"0.6 mg/l, 20 min reperfusion",84.10%
same,Systolic Pressure in Ischemic Left Ventricle (% of Preischemic Values),"0.6 mg/l, 20 min reperfusion",82.35%
same,Diastolic Pressure in Ischemic Left Ventricle (% of Preischemic Mean Value),"0.6 mg/l, 30 min reperfusion",127.06%
same,Evolving Pressure in Ischemic Left Ventricle (% of Preischemic Mean Value),"0.6 mg/l, 30 min reperfusion",87.22%
same,Heart Rate during Reperfusion (% of Preischemic Mean Value),"0.6 mg/l, 30 min reperfusion",106.61%
same,Maximal Rate of Increase of Left Ventricle Pressure (% of Preischemic Mean Value),"0.6 mg/l, 30 min reperfusion",97.62%
same,Maximal Rate of Left Ventricle Pressure Decrease (% of Preischemic Mean Value),"0.6 mg/l, 30 min reperfusion",91.20%
same,Systolic Pressure in Ischemic Left Ventricle (% of Preischemic Values),"0.6 mg/l, 30 min reperfusion",91.89%
same,restoration of +dp/dtmax,"0.6 mg/l, after 30 minutes of reperfusion",nearly to its preischemic level
same,"evolving pressure, % of preischemic level","0.6 mg/l, after about 20 or about 30 minutes of reperfusion, respectively",≥ 85%
same,"-dp/dtmax, % of preischemic value",0.6 mg/l,greater than 90%
same,Number of Ventricular Extrasystoles,[1],174.9
same,Overall Duration of Ventricular Fibrillation,[1],79.6 s
same,Overall Duration of Ventricular Tachycardia,[1],5.2 s
same,Diastolic Pressure in Ischemic Left Ventricle (% of Preischemic Mean Value),"6.0 mg/l, 1 min reperfusion",53.97%
same,Evolving Pressure in Ischemic Left Ventricle (% of Preischemic Mean Value),"6.0 mg/l, 1 min reperfusion",78.34%
same,Heart Rate during Reperfusion (% of Preischemic Mean Value),"6.0 mg/l, 1 min reperfusion",38.86%
same,Maximal Rate of Increase of Left Ventricle Pressure (% of Preischemic Mean Value),"6.0 mg/l, 1 min reperfusion",71.18%
same,Maximal Rate of Left Ventricle Pressure Decrease (% of Preischemic Mean Value),"6.0 mg/l, 1 min reperfusion",59.93%
same,Systolic Pressure in Ischemic Left Ventricle (% of Preischemic Values),"6.0 mg/l, 1 min reperfusion",72.87%
same,Diastolic Pressure in Ischemic Left Ventricle (% of Preischemic Mean Value),"6.0 mg/l, 5 min reperfusion",65.08%
same,Evolving Pressure in Ischemic Left Ventricle (% of Preischemic Mean Value),"6.0 mg/l, 5 min reperfusion",68.80%
same,Heart Rate during Reperfusion (% of Preischemic Mean Value),"6.0 mg/l, 5 min reperfusion",55.65%
same,Maximal Rate of Increase of Left Ventricle Pressure (% of Preischemic Mean Value),"6.0 mg/l, 5 min reperfusion",68.10%
same,Maximal Rate of Left Ventricle Pressure Decrease (% of Preischemic Mean Value),"6.0 mg/l, 5 min reperfusion",70.76%
same,Systolic Pressure in Ischemic Left Ventricle (% of Preischemic Values),"6.0 mg/l, 5 min reperfusion",67.10%
same,Diastolic Pressure in Ischemic Left Ventricle (% of Preischemic Mean Value),"6.0 mg/l, 10 min reperfusion",103.17%
same,Evolving Pressure in Ischemic Left Ventricle (% of Preischemic Mean Value),"6.0 mg/l, 10 min reperfusion",74.86%
same,Heart Rate during Reperfusion (% of Preischemic Mean Value),"6.0 mg/l, 10 min reperfusion",82.12%
same,Maximal Rate of Increase of Left Ventricle Pressure (% of Preischemic Mean Value),"6.0 mg/l, 10 min reperfusion",77.78%
same,Maximal Rate of Left Ventricle Pressure Decrease (% of Preischemic Mean Value),"6.0 mg/l, 10 min reperfusion",93.15%
same,Systolic Pressure in Ischemic Left Ventricle (% of Preischemic Values),"6.0 mg/l, 10 min reperfusion",77.71%
same,Diastolic Pressure in Ischemic Left Ventricle (% of Preischemic Mean Value),"6.0 mg/l, 20 min reperfusion",83.98%
same,Evolving Pressure in Ischemic Left Ventricle (% of Preischemic Mean Value),"6.0 mg/l, 20 min reperfusion",78.47%
same,Heart Rate during Reperfusion (% of Preischemic Mean Value),"6.0 mg/l, 20 min reperfusion",77.12%
same,Maximal Rate of Increase of Left Ventricle Pressure (% of Preischemic Mean Value),"6.0 mg/l, 20 min reperfusion",82.47%
same,Maximal Rate of Left Ventricle Pressure Decrease (% of Preischemic Mean Value),"6.0 mg/l, 20 min reperfusion",95.32%
same,Systolic Pressure in Ischemic Left Ventricle (% of Preischemic Values),"6.0 mg/l, 20 min reperfusion",77.71%
same,Diastolic Pressure in Ischemic Left Ventricle (% of Preischemic Mean Value),"6.0 mg/l, 30 min reperfusion",132.47%
same,Evolving Pressure in Ischemic Left Ventricle (% of Preischemic Mean Value),"6.0 mg/l, 30 min reperfusion",73.08%
same,Heart Rate during Reperfusion (% of Preischemic Mean Value),"6.0 mg/l, 30 min reperfusion",63.29%
same,Maximal Rate of Increase of Left Ventricle Pressure (% of Preischemic Mean Value),"6.0 mg/l, 30 min reperfusion",74.49%
same,Maximal Rate of Left Ventricle Pressure Decrease (% of Preischemic Mean Value),"6.0 mg/l, 30 min reperfusion",93.07%
same,Systolic Pressure in Ischemic Left Ventricle (% of Preischemic Values),"6.0 mg/l, 30 min reperfusion",79.73%
same,"-dp/dtmax, % of preischemic value",6.0 mg/l,greater than 90%
same,arrhythmogenic effect during reperfusion,0.06-6.0 mg/l,Neither GE nor VT was found to have an arrhythmogenic effect
same,effect on systolic pressure drop,0.06 and 0.6 mg/l,prevented the dramatic drop in systolic pressure
same,chronotropic effect on heart rate,0.06 and 6.0 mg/l,moderate negative chronotropic effect
same,effect on diastolic pressure increase,reperfusion,prevented the increase in diastolic pressure
